Source: patent US8492582B2, “N-acyl anthranilic acid derivative or salt thereof” (Toyama Chemical Co., Ltd., priority 2009, dated 2013)
Structures can show the parent of a compound that is named as a salt.

The compounds below were run on type I collagen α1 chain mRNA in WI-38 cells (assay: Type I collagen α1 chain mRNA expression inhibition test). Conditions: Homo sapiens, WI-38, 24 h, read-out: Inhibition rate (%) at 10 μmol/L.
Format: cell-based
Experimental: Human embryonic lung fibroblast cell line WI-38 cells were suspended in a Dulbecco's modified Eagle's medium containing 10% fetal calf serum, and 7.5×10^4 cells were inoculated on a 12-well plate and cultured for 3 days, or 1.5×10^5 cells were inoculated and cultured for 2 days. After the growth of the cells to a subconfluent state, the culture medium was changed to a Dulbecco's modified Eagle's medium containing 0.4% fetal calf serum and 50 μg/mL ascorbic acid, and the cells were further cultured for 24 hours. Then, a test compound was added thereto, and, one hour later, TGF-β1 was added at a final concentration of 1 ng/mL. Twenty-four hours after the addition, the total RNA was extracted from the cells using an RNA extraction kit (SV Total RNA Isolation System, Promega), and cDNA was synthesized using a reverse transcriptase (ReverTra Ace, TOYOBO). The expression level of the type I collagen al chain mRNA was analyzed with a real-time PCR instrument (ABI PRISM 7700 Sequence Detection System, Applied Biosystems) by a real-time PCR method using a premix reagent of real-time PCR (SYBR Premix Ex Taq or SYBR Premix Ex Taq II (Perfect Real Time), TaKaRa). A PCR reaction was conducted with diluted cDNA as a template, using primers specific for a type I collagen α1 chain gene or a GAPDH gene as an internal standard, and the reaction product was measured. The PCR reaction was conducted by incubation at 95° C. for 10 seconds and 45 cycles of denaturation at 95° C. for 5 seconds and annealing/extension at 60° C. for 30 seconds. The expression level of the type I collagen α1 chain mRNA was corrected with GAPDH and was expressed as a relative value when the expression level obtained in the absence of the test compound was defined as 100%.

| Compound | inhibition at 10 µM |
| --- | --- |
| O=C(Nc1cc(N2CCCCC2)ccc1C(=O)O)c1cncc(-c2ccccc2)c1 [63b, Sodium 2-(5-phenylpyridine-3-carboxamido)-4-(piperidin-1-yl)benzoate] | 65% |
| O=C(Nc1cc(-c2ccccc2F)ccc1C(=O)O)c1cncc(-c2ccccc2)c1 [44b, sodium 4-(2-fluorophenyl)-2-(5-phenylpyridine-3-carboxamido)-benzoate] | 93% |
| O=C(Nc1cc(-c2ccccc2OC(F)F)ccc1C(=O)O)c1cncc(-c2ccccc2)c1 [9b] | 84% |

Same assay, conditions: Homo sapiens; 10 μmol/L test compound; WI-38 cells, TGF-β1 1 ng/mL, 24 hours; Table 4a; read-out: Inhibition rate (%) at 10 μmol/L

| Compound | inhibition at 10 µM |
| --- | --- |
| Cc1ccccc1-c1ccc(C(=O)O)c(NC(=O)c2cc(N3CCCCC3)ccc2O)c1 [Example 148a, 2-(2-hydroxy-5-(piperidin-1-yl)benzamido)-4-(2-methylphenyl)benzoic acid] | 93% |
| O=C(Nc1cc(-c2ccccc2)ccc1C(=O)O)c1cc(OCCN2CCCCCC2)ccc1O [181a, 2-(5-(2-(Homopiperidin-1-yl)ethoxy)-2-hydroxybenzamido)-4-phenylbenzoic acid hydrochloride] | 74% |
| O=C(Nc1cc(-c2ccccc2)ccc1C(=O)O)c1cc(OCCN2CCN(CCCO)CC2)ccc1O [174a, 2-(2-hydroxy-5-(2-(4-(3-hydroxypropyl)piperazin-1-yl)ethoxy)benzamido)-4-phenylbenzoic acid] | 86% |
| CN1CCN(CCCOc2ccc(O)c(C(=O)Nc3cc(-c4ccccc4)ccc3C(=O)O)c2)CC1 [Example 141a, 2-(2-hydroxy-5-(3-(4-methylpiperazin-1-yl)propoxy)benzamido)-4-phenylbenzoic acid dimethanesulfonate] | 92% |
| CN(C)CCN(C)Cc1ccc(O)c(C(=O)Nc2cc(-c3ccccc3)ccc2C(=O)O)c1 [Example 134a, 2-(5-(((2-(dimethylamino)ethyl)(methyl)amino)methyl)-2-hydroxybenzamido)-4-phenylbenzoic acid] | 90% |
| CCN(CCO)CCOc1ccc(O)c(C(=O)Nc2cc(-c3ccccc3)ccc2C(=O)O)c1 [182a, 2-(5-(2-(Ethyl(2-hydroxyethyl)amino)ethoxy)-2-hydroxybenzamido)-4-phenylbenzoic acid hydrochloride] | 82% |
| Cc1cccc(-c2ccc(C(=O)O)c(NC(=O)c3cc(N4CCOCC4)ccc3O)c2)c1 [201a, 2-(2-Hydroxy-5-(morpholin-4-yl)benzamido)-4-(3-methylphenyl)benzoic acid] | 94% |
| O=C(Nc1cc(-c2ccc[nH]2)ccc1C(=O)O)c1cc(N2CCCCC2)ccc1O [157a, 2-(2-hydroxy-5-(piperidin-1-yl)benzamido)-4-(1H-pyrrol-2-yl)benzoic acid] | 84% |
| CN(C)c1ccc(O)c(C(=O)Nc2cc(-c3ccccc3)ccc2C(=O)O)c1 [Example 76a, 2-(5-(dimethylamino)-2-hydroxybenzamido)-4-phenylbenzoic acid hydrochloride] | 72% |
| Cc1ccc(-c2ccc(C(=O)O)c(NC(=O)c3cc(N4CCCCC4)ccc3O)c2)cc1 [Example 150a, 2-(2-Hydroxy-5-(piperidin-1-yl)benzamido)-4-(4-methylphenyl)benzoic acid] | 93% |
| O=C(Nc1cc(-c2ccccc2)ccc1C(=O)O)c1ccc(N2CCCCC2)cc1O [Example 100a, 2-(2-hydroxy-4-(piperidin-1-yl)benzamido)-4-phenylbenzoic acid] | 99% |
| CN1CCN(c2ccc(O)c(C(=O)Nc3cc(-c4ccccc4)ccc3C(=O)O)c2)CC1=O [193a, 2-(2-Hydroxy-5-(4-methyl-3-oxopiperazin-1-yl)benzamido)-4-phenylbenzoic acid] | 85% |
| CC1CCCN(c2ccc(O)c(C(=O)Nc3cc(-c4ccccc4)ccc3C(=O)O)c2)C1 (stereo not shown) [166a, 2-(2-Hydroxy-5-(3-methylpiperidin-1-yl)benzamido)-4-phenylbenzoic acid hydrochloride] | 95% |
| O=C(Nc1cc(-c2ccccc2)ccc1C(=O)O)c1cc(Cl)ccc1O [Example 2a, 2-(5-Chloro-2-hydroxybenzamido)-4-phenylbenzoic acid] | 99% |
| Nc1cccc(-c2ccc(O)c(C(=O)Nc3cc(-c4ccccc4)ccc3C(=O)O)c2)n1 [Example 73a, 2-(5-(6-aminopyridin-2-yl)-2-hydroxybenzamido)-4-phenylbenzoic acid] | 96% |
| CN1CCC(COc2ccc(O)c(C(=O)Nc3cc(-c4ccccc4)ccc3C(=O)O)c2)CC1 [189a, 2-(2-hydroxy-5-(1-methylpiperidin-4-ylmethoxy)benzamido)-4-phenylbenzoic acid hydrochloride] | 95% |
| Cc1ccc(O)c(C(=O)Nc2cc(-c3ccccc3)ccc2C(=O)O)c1 [Example 4a, 2-(2-Hydroxy-5-methylbenzamido)-4-phenylbenzoic acid] | 97% |
| O=C(Nc1cc(-c2ccccc2)ccc1C(=O)O)c1cc(Oc2ccccc2)ccc1O [Example 115a, 2-(2-hydroxy-5-phenoxybenzamido)-4-phenylbenzoic acid] | 98% |
| O=C(Nc1cc(-c2ccccc2)ccc1C(=O)O)c1cc(-c2ccccn2)ccc1O [Example 27a, 2-(2-hydroxy-5-(pyridin-2-yl)benzamido)-4-phenylbenzoic acid] | 98% |
| CNC1CCN(Cc2ccc(O)c(C(=O)Nc3cc(-c4ccccc4)ccc3C(=O)O)c2)CC1 [Example 126a, 2-(2-Hydroxy-5-((4-(methylamino)piperidin-1-yl)methyl)benzamido)-4-phenylbenzoic acid dimethanesulfonate] | 79% |
| COc1cccc(-c2ccc(C(=O)O)c(NC(=O)c3cc(N4CCOCC4)ccc3O)c2)c1 [204a, 2-(2-Hydroxy-5-(morpholin-4-yl)benzamido)-4-(3-methoxyphenyl)benzoic acid] | 89% |
| CN1CCC(CCOc2ccc(O)c(C(=O)Nc3cc(-c4ccccc4)ccc3C(=O)O)c2)CC1 [190a, 2-(2-Hydroxy-5-(2-(1-methylpiperidin-4-yl)ethoxy)benzamido)-4-phenylbenzoic acid hydrochloride] | 86% |
| O=C(Nc1cc(-c2ccc3c(c2)ONO3)ccc1C(=O)O)c1cc(N2CCOCC2)ccc1O [207a, 4-(Benzo-[1,3]-dioxazol-5-yl)-2-(2-hydroxy-5-(morpholin-4-yl)benzamido)benzoic acid] | 83% |
| CN1CCCCC1c1ccc(O)c(C(=O)Nc2cc(-c3ccccc3)ccc2C(=O)O)c1 (stereo not shown) [217a, 2-(2-hydroxy-5-(1-methylpiperidin-2-yl)benzamido)-4-phenylbenzoic acid] | 91% |
| O=C(O)c1ccc(-c2ccccc2)cc1NC(=O)c1cccc(-c2cccnc2)c1O [Example 16a, Sodium 2-(2-hydroxy-3-(pyridin-3-yl)benzamido)-4-phenylbenzoate] | 80% |
| O=C(Nc1cc(-c2ccccc2)ccc1C(=O)O)c1cc(OCCN2CCC2)ccc1O [177a, 2-(5-(2-(azetidin-1-yl)ethoxy)-2-hydroxybenzamido)-4-phenylbenzoic acid hydrochloride] | 82% |

Same assay, conditions: Homo sapiens; 10 μmol/L test compound; WI-38 cells, TGF-β1 1 ng/mL, 24 hours; Table 4b; read-out: Inhibition rate (%) at 10 μmol/L

| Compound | inhibition at 10 µM |
| --- | --- |
| CNc1cccc(-c2ccc(C(=O)O)c(NC(=O)c3cncc(-c4ccccc4)c3)c2)c1 [13b, 4-(3-(Methylamino)phenyl)-2-(5-phenylpyridine-3-carboxamido)benzoic acid] | 92% |
| CCNc1cccc(-c2ccc(C(=O)O)c(NC(=O)c3cncc(-c4ccccc4)c3)c2)c1 [11b, 4-(3-(ethylamino)phenyl)-2-(5-phenylpyridine-3-carboxamido)benzoic acid] | 80% |
| O=C(Nc1cc(-c2ccccc2)ccc1-c1nnn[nH]1)c1cncc(-c2ccccc2)c1 [29b, 5-phenyl-N-(5-phenyl-2-(1H-tetrazol-5-yl)phenyl)pyridine-3-carboxamide] | 86% |
| O=C(Nc1cc(-c2ccccc2C(F)(F)F)ccc1C(=O)O)c1cncc(-c2ccccc2)c1 [33b, Sodium 2-(5-phenylpyridine-3-carboxamido)-4-(2-(trifluoromethyl)phenyl)benzoate] | 78% |
| O=C(Nc1cc(-c2ccccc2)ccc1C(=O)O)c1cccc(-c2ccccc2)n1 [5b, 4-Phenyl-2-(6-phenylpyridine-2-carboxamido)benzoic acid] | 72% |
| CN(C)c1cccc(-c2ccc(C(=O)O)c(NC(=O)c3cncc(-c4ccccc4)c3)c2)c1 [51b, 4-(3-(Dimethylamino)phenyl)-2-(5-phenylpyridine-3-carboxamido)benzoic acid] | 92% |
| O=C(Nc1cc(-c2ccc[nH]2)ccc1C(=O)O)c1cncc(-c2ccccc2)c1 [58b, 2-(5-phenylpyridine-3-carboxamido)-4-(1H-pyrrol-2-yl)benzoic acid] | 78% |
| O=C(Nc1cc(-c2ccccc2)ccc1C(=O)O)c1ccc(-c2ccccc2)nc1 [3b, 4-phenyl-2-(6-phenylpyridine-3-carboxamido)benzoic acid] | 83% |
